According to the NIST ThermoML archive (doi:10.1021/acs.jced.7b00773):
Numbers after ± are expanded uncertainties.

Conditions: Liquid; for viscosity: Concentric cylinders viscometry

C=CCn1cc[n+](C)c1.O=S(=O)([N-]S(=O)(=O)C(F)(F)F)C(F)(F)F
100 kPa
Conditions	viscosity [mPa·s]
293.15 K	40.69 ± 1.9
303.15 K	28.08 ± 1.3
313.15 K	20.31 ± 0.94
323.15 K	15.29 ± 0.71
333.15 K	11.91 ± 0.55
343.15 K	9.52 ± 0.44
353.15 K	7.783 ± 0.36
363.15 K	6.489 ± 0.3
373.15 K	5.498 ± 0.26

Conditions	mass density [kg/m3]
293.15 K, 100 kPa, Vibrating tube method	1506.1 ± 3.3
303.15 K, 100 kPa, Vibrating tube method	1496 ± 3.3
312.5 K, 10000 kPa, Bellows volumetry	1493.8 ± 3.6
312.5 K, 20000 kPa, Bellows volumetry	1501.1 ± 3.6
312.5 K, 30000 kPa, Bellows volumetry	1508 ± 3.6
312.5 K, 40000 kPa, Bellows volumetry	1514.7 ± 3.6
312.5 K, 50000 kPa, Bellows volumetry	1521 ± 3.6
312.5 K, 60000 kPa, Bellows volumetry	1527.1 ± 3.6
312.5 K, 70000 kPa, Bellows volumetry	1533.1 ± 3.6
312.5 K, 80000 kPa, Bellows volumetry	1538.8 ± 3.6
312.5 K, 90000 kPa, Bellows volumetry	1544.2 ± 3.6
312.5 K, 100000 kPa, Bellows volumetry	1549.5 ± 3.6
312.5 K, 110000 kPa, Bellows volumetry	1554.7 ± 3.6
312.5 K, 120000 kPa, Bellows volumetry	1559.7 ± 3.6
312.5 K, 130000 kPa, Bellows volumetry	1564.7 ± 3.6
312.5 K, 140000 kPa, Bellows volumetry	1569.4 ± 3.6
312.5 K, 150000 kPa, Bellows volumetry	1574 ± 3.6
312.5 K, 160000 kPa, Bellows volumetry	1578.6 ± 3.6
312.5 K, 170000 kPa, Bellows volumetry	1583.2 ± 3.6
312.5 K, 180000 kPa, Bellows volumetry	1587.5 ± 3.6
312.5 K, 190000 kPa, Bellows volumetry	1591.8 ± 3.6
312.5 K, 200000 kPa, Bellows volumetry	1596 ± 3.6
313.15 K, 100 kPa, Vibrating tube method	1486 ± 3.3
323.15 K, 100 kPa, Vibrating tube method	1476 ± 3.3
332.3 K, 10000 kPa, Bellows volumetry	1474.5 ± 3.6
332.3 K, 20000 kPa, Bellows volumetry	1482.1 ± 3.6
332.3 K, 30000 kPa, Bellows volumetry	1489.6 ± 3.6
332.3 K, 40000 kPa, Bellows volumetry	1496.7 ± 3.6
332.3 K, 50000 kPa, Bellows volumetry	1503.4 ± 3.6
332.3 K, 60000 kPa, Bellows volumetry	1509.7 ± 3.6
332.3 K, 70000 kPa, Bellows volumetry	1515.8 ± 3.6
332.3 K, 80000 kPa, Bellows volumetry	1521.7 ± 3.6
332.3 K, 90000 kPa, Bellows volumetry	1527.3 ± 3.6
332.3 K, 100000 kPa, Bellows volumetry	1533 ± 3.6
332.3 K, 110000 kPa, Bellows volumetry	1538.5 ± 3.6
332.3 K, 120000 kPa, Bellows volumetry	1543.8 ± 3.6
332.3 K, 130000 kPa, Bellows volumetry	1548.9 ± 3.6
332.3 K, 140000 kPa, Bellows volumetry	1553.7 ± 3.6
332.3 K, 150000 kPa, Bellows volumetry	1558.5 ± 3.6
332.3 K, 160000 kPa, Bellows volumetry	1563.3 ± 3.6
332.3 K, 170000 kPa, Bellows volumetry	1568 ± 3.6
332.3 K, 180000 kPa, Bellows volumetry	1572.5 ± 3.6
332.3 K, 190000 kPa, Bellows volumetry	1576.9 ± 3.6
332.3 K, 200000 kPa, Bellows volumetry	1581.4 ± 3.6
333.15 K, 100 kPa, Vibrating tube method	1466.1 ± 3.3
343.15 K, 100 kPa, Vibrating tube method	1456.3 ± 3.3
352.4 K, 10000 kPa, Bellows volumetry	1455.3 ± 3.6
352.4 K, 20000 kPa, Bellows volumetry	1463.6 ± 3.6
352.4 K, 30000 kPa, Bellows volumetry	1471.5 ± 3.6
352.4 K, 40000 kPa, Bellows volumetry	1479 ± 3.6
352.4 K, 50000 kPa, Bellows volumetry	1486.1 ± 3.6
352.4 K, 60000 kPa, Bellows volumetry	1492.9 ± 3.6
352.4 K, 70000 kPa, Bellows volumetry	1499.3 ± 3.6
352.4 K, 80000 kPa, Bellows volumetry	1505.6 ± 3.6
352.4 K, 90000 kPa, Bellows volumetry	1511.4 ± 3.6
352.4 K, 100000 kPa, Bellows volumetry	1517.2 ± 3.6
352.4 K, 110000 kPa, Bellows volumetry	1522.8 ± 3.6
352.4 K, 120000 kPa, Bellows volumetry	1528.3 ± 3.6
352.4 K, 130000 kPa, Bellows volumetry	1533.5 ± 3.6
352.4 K, 140000 kPa, Bellows volumetry	1538.7 ± 3.6
352.4 K, 150000 kPa, Bellows volumetry	1543.7 ± 3.6
352.4 K, 160000 kPa, Bellows volumetry	1548.5 ± 3.6
352.4 K, 170000 kPa, Bellows volumetry	1553.3 ± 3.6
352.4 K, 180000 kPa, Bellows volumetry	1558 ± 3.6
352.4 K, 190000 kPa, Bellows volumetry	1562.6 ± 3.6
352.4 K, 200000 kPa, Bellows volumetry	1567.1 ± 3.6
353.15 K, 100 kPa, Vibrating tube method	1446.5 ± 3.3
363.15 K, 100 kPa, Vibrating tube method	1436.8 ± 3.2
372.5 K, 10000 kPa, Bellows volumetry	1436.7 ± 3.6
372.5 K, 20000 kPa, Bellows volumetry	1445.3 ± 3.6
372.5 K, 30000 kPa, Bellows volumetry	1453.7 ± 3.6
372.5 K, 40000 kPa, Bellows volumetry	1461.6 ± 3.6
372.5 K, 50000 kPa, Bellows volumetry	1469.1 ± 3.6
372.5 K, 60000 kPa, Bellows volumetry	1476.1 ± 3.6
372.5 K, 70000 kPa, Bellows volumetry	1482.9 ± 3.6
372.5 K, 80000 kPa, Bellows volumetry	1489.5 ± 3.6
372.5 K, 90000 kPa, Bellows volumetry	1495.6 ± 3.6
372.5 K, 100000 kPa, Bellows volumetry	1501.6 ± 3.6
372.5 K, 110000 kPa, Bellows volumetry	1507.5 ± 3.6
372.5 K, 120000 kPa, Bellows volumetry	1513.3 ± 3.6
372.5 K, 130000 kPa, Bellows volumetry	1518.7 ± 3.6
372.5 K, 140000 kPa, Bellows volumetry	1524 ± 3.6
372.5 K, 150000 kPa, Bellows volumetry	1529.2 ± 3.6
372.5 K, 160000 kPa, Bellows volumetry	1534.2 ± 3.6
372.5 K, 170000 kPa, Bellows volumetry	1539.1 ± 3.6
372.5 K, 180000 kPa, Bellows volumetry	1544 ± 3.6
372.5 K, 190000 kPa, Bellows volumetry	1548.6 ± 3.6
372.5 K, 200000 kPa, Bellows volumetry	1553.4 ± 3.6
373.15 K, 100 kPa, Vibrating tube method	1427.3 ± 3.2
392.8 K, 10000 kPa, Bellows volumetry	1417.8 ± 3.6
392.8 K, 20000 kPa, Bellows volumetry	1427.3 ± 3.6
392.8 K, 30000 kPa, Bellows volumetry	1436.1 ± 3.6
392.8 K, 40000 kPa, Bellows volumetry	1444.4 ± 3.6
392.8 K, 50000 kPa, Bellows volumetry	1452.4 ± 3.6
392.8 K, 60000 kPa, Bellows volumetry	1459.8 ± 3.6
392.8 K, 70000 kPa, Bellows volumetry	1466.9 ± 3.6
392.8 K, 80000 kPa, Bellows volumetry	1473.7 ± 3.6
392.8 K, 90000 kPa, Bellows volumetry	1480.1 ± 3.6
392.8 K, 100000 kPa, Bellows volumetry	1486.5 ± 3.6
392.8 K, 110000 kPa, Bellows volumetry	1492.5 ± 3.6
392.8 K, 120000 kPa, Bellows volumetry	1498.5 ± 3.6
392.8 K, 130000 kPa, Bellows volumetry	1504.2 ± 3.6
392.8 K, 140000 kPa, Bellows volumetry	1509.6 ± 3.6
392.8 K, 150000 kPa, Bellows volumetry	1514.9 ± 3.6
392.8 K, 160000 kPa, Bellows volumetry	1520.2 ± 3.6
392.8 K, 170000 kPa, Bellows volumetry	1525.3 ± 3.6
392.8 K, 180000 kPa, Bellows volumetry	1530.2 ± 3.6
392.8 K, 190000 kPa, Bellows volumetry	1535.1 ± 3.6
392.8 K, 200000 kPa, Bellows volumetry	1539.9 ± 3.6
413.1 K, 10000 kPa, Bellows volumetry	1399.4 ± 3.6
413.1 K, 20000 kPa, Bellows volumetry	1409.4 ± 3.6
413.1 K, 30000 kPa, Bellows volumetry	1418.9 ± 3.6
413.1 K, 40000 kPa, Bellows volumetry	1427.7 ± 3.6
413.1 K, 50000 kPa, Bellows volumetry	1436 ± 3.6
413.1 K, 60000 kPa, Bellows volumetry	1443.8 ± 3.6
413.1 K, 70000 kPa, Bellows volumetry	1451.3 ± 3.6
413.1 K, 80000 kPa, Bellows volumetry	1458.4 ± 3.6
413.1 K, 90000 kPa, Bellows volumetry	1465.2 ± 3.6
413.1 K, 100000 kPa, Bellows volumetry	1471.7 ± 3.6
413.1 K, 110000 kPa, Bellows volumetry	1478 ± 3.6
413.1 K, 120000 kPa, Bellows volumetry	1484.2 ± 3.6
413.1 K, 130000 kPa, Bellows volumetry	1490 ± 3.6
413.1 K, 140000 kPa, Bellows volumetry	1495.8 ± 3.6
413.1 K, 150000 kPa, Bellows volumetry	1501.3 ± 3.6
413.1 K, 160000 kPa, Bellows volumetry	1506.6 ± 3.6
413.1 K, 170000 kPa, Bellows volumetry	1511.8 ± 3.6
413.1 K, 180000 kPa, Bellows volumetry	1516.9 ± 3.6
413.1 K, 190000 kPa, Bellows volumetry	1521.8 ± 3.6
413.1 K, 200000 kPa, Bellows volumetry	1526.8 ± 3.6
432.7 K, 10000 kPa, Bellows volumetry	1381.4 ± 3.6
432.7 K, 20000 kPa, Bellows volumetry	1392 ± 3.6
432.7 K, 30000 kPa, Bellows volumetry	1401.8 ± 3.6
432.7 K, 40000 kPa, Bellows volumetry	1411.1 ± 3.6
432.7 K, 50000 kPa, Bellows volumetry	1419.9 ± 3.6
432.7 K, 60000 kPa, Bellows volumetry	1428 ± 3.6
432.7 K, 70000 kPa, Bellows volumetry	1435.9 ± 3.6
432.7 K, 80000 kPa, Bellows volumetry	1443.4 ± 3.6
432.7 K, 90000 kPa, Bellows volumetry	1450.5 ± 3.6
432.7 K, 100000 kPa, Bellows volumetry	1457.2 ± 3.6
432.7 K, 110000 kPa, Bellows volumetry	1463.7 ± 3.6
432.7 K, 120000 kPa, Bellows volumetry	1470.1 ± 3.6
432.7 K, 130000 kPa, Bellows volumetry	1476.1 ± 3.6
432.7 K, 140000 kPa, Bellows volumetry	1482 ± 3.6
432.7 K, 150000 kPa, Bellows volumetry	1487.7 ± 3.6
432.7 K, 160000 kPa, Bellows volumetry	1493.2 ± 3.6
432.7 K, 170000 kPa, Bellows volumetry	1498.6 ± 3.6
432.7 K, 180000 kPa, Bellows volumetry	1503.9 ± 3.6
432.7 K, 190000 kPa, Bellows volumetry	1508.9 ± 3.6
432.7 K, 200000 kPa, Bellows volumetry	1514 ± 3.6
